Laboratory results reported in PubChem BioAssay AID248 (DTP/NCI, 2004).
Several values for one entry are separate records, joined by “and”; a condition that tells them apart may be missing. Identical values can stand only once. Inconclusive results and toxic doses are left out. No stated cut-off is given here; in the data, active means T/C of 150% or more; inactive means T/C below 125%.

Test system: L1210 leukemia ip in BDF1 mice, survival T/C
Assay: NCI In Vivo Anticancer Drug Screen. Data for tumor model L1210 Leukemia (intraperitoneal) in B6D2F1 (BDF1) mice
Details: endpoint: mean survival time, higher = longer survival
Method in brief: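 Value reflects the ratio of survival in compound-treated mice to survival in vehicle-treated controls, with both groups carrying the same transplanted tumor.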

[1] = dose: 100.0 mg/kg/injection, schedule: Q04DX003 (ip), vehicle: Klucel (hydroxypropylcellulose) (HPC)
[2] = dose: 100.0 mg/kg/injection, schedule: Q01DX009 (ip), vehicle: Klucel (hydroxypropylcellulose) (HPC)
[3] = dose: 100.0 mg/kg/injection, schedule: Q01DX001 (ip), vehicle: saline with Tween-80
[4] = dose: 100.0 mg/kg/injection, schedule: Q04DX003 (ip), vehicle: saline with Tween-80
[5] = dose: 200.0 mg/kg/injection, schedule: Q01DX009 (ip), vehicle: saline with Tween-80
[6] = dose: 200.0 mg/kg/injection, schedule: Q04DX003 (ip), vehicle: saline with Tween-80
[7] = dose: 400.0 mg/kg/injection, schedule: Q04DX003 (ip), vehicle: saline with Tween-80
[8] = dose: 50.0 mg/kg/injection, schedule: Q01DX001 (ip), vehicle: saline
[9] = dose: 100.0 mg/kg/injection, schedule: Q01DX001 (ip), vehicle: saline
[10] = dose: 200.0 mg/kg/injection, schedule: Q01DX001 (ip), vehicle: saline
[11] = dose: 400.0 mg/kg/injection, schedule: Q01DX001 (ip), vehicle: saline

Measured: T/C

S=C(Nc1ccccc1)Nc1ncn[nH]1
inactive: dose: 75.0 mg/kg/injection, schedule: Q01DX001 (ip), vehicle: carboxymethylcellulose (CMC) 95 % of control | dose: 150.0 mg/kg/injection, schedule: Q01DX001 (ip), vehicle: carboxymethylcellulose (CMC) 98 % of control | dose: 300.0 mg/kg/injection, schedule: Q01DX001 (ip), vehicle: carboxymethylcellulose (CMC) 88 % of control

O=C1CC2CC1C1CC(Br)C(Br)C21 (configuration not stated)
inactive: dose: 100.0 mg/kg/injection, schedule: Q04DX003 (ip), vehicle: acetone 97 % of control | dose: 200.0 mg/kg/injection, schedule: Q04DX003 (ip), vehicle: acetone 97 % of control | dose: 400.0 mg/kg/injection, schedule: Q04DX003 (ip), vehicle: acetone 92 % of control

Cc1cc(=O)c(CCl)n[nH]1
inactive: dose: 25.0 mg/kg/injection, schedule: Q01DX009 (ip), vehicle: Klucel (hydroxypropylcellulose) (HPC) 115 % of control | dose: 25.0 mg/kg/injection, schedule: Q04DX003 (ip), vehicle: Klucel (hydroxypropylcellulose) (HPC) 120 % of control | dose: 50.0 mg/kg/injection, schedule: Q04DX003 (ip), vehicle: Klucel (hydroxypropylcellulose) (HPC) 116 % of control | [1] 97 % of control and 89 % of control

CN(C)C(=S)SSC(=S)N(C)C
inactive: dose: 50.0 mg/kg/injection, schedule: Q01DX009 (ip), vehicle: Klucel (hydroxypropylcellulose) (HPC) 92 % of control | [2] 99 % of control | dose: 100.0 mg/kg/injection, schedule: Q04DX003 (ip), vehicle: other 95 % of control | dose: 200.0 mg/kg/injection, schedule: Q04DX003 (ip), vehicle: other 103 % of control | dose: 400.0 mg/kg/injection, schedule: Q04DX003 (ip), vehicle: other 96 % of control

FC(F)(F)c1ccc2c(c1)N(CCCN1CCN(CCOc3ccccc3)CC1)c1ccccc1S2
inactive: dose: 6.25 mg/kg/injection, schedule: Q04DX003 (ip), vehicle: saline 105 % of control | dose: 8.2 mg/kg/injection, schedule: Q04DX003 (ip), vehicle: saline 97 % of control and 98 % of control | dose: 12.5 mg/kg/injection, schedule: Q04DX003 (ip), vehicle: saline 104 % of control | dose: 18.0 mg/kg/injection, schedule: Q04DX003 (ip), vehicle: saline 101 % of control and 102 % of control

O=C(Nc1ccc(S(=O)(=O)F)cc1)Oc1ccc([N+](=O)[O-])cc1
inactive: dose: 25.0 mg/kg/injection, schedule: Q01DX009 (ip), vehicle: saline with Tween-80 92 % of control and 93 % of control | dose: 50.0 mg/kg/injection, schedule: Q01DX001 (ip), vehicle: saline with Tween-80 103 % of control | dose: 50.0 mg/kg/injection, schedule: Q01DX009 (ip), vehicle: saline with Tween-80 92 % of control and 89 % of control | [3] 105 % of control | dose: 100.0 mg/kg/injection, schedule: Q04DX002 (ip), vehicle: saline with Tween-80 95 % of control | [4] 93 % of control | dose: 200.0 mg/kg/injection, schedule: Q01DX001 (ip), vehicle: saline with Tween-80 97 % of control | [5] 98 % of control | dose: 200.0 mg/kg/injection, schedule: Q04DX002 (ip), vehicle: saline with Tween-80 96 % of control | [6] 98 % of control | dose: 400.0 mg/kg/injection, schedule: Q01DX001 (ip), vehicle: saline with Tween-80 105 % of control | dose: 400.0 mg/kg/injection, schedule: Q04DX002 (ip), vehicle: saline with Tween-80 88 % of control | [7] 103 % of control

CN(CCOS(C)(=O)=O)CCOS(C)(=O)=O
active: dose: 0.2 mg/kg/injection, schedule: Q01DX009 (ip), vehicle: saline 161 % of control | dose: 0.4 mg/kg/injection, schedule: Q01DX009 (ip), vehicle: saline 183 % of control | dose: 0.8 mg/kg/injection, schedule: Q01DX009 (ip), vehicle: saline 163 % of control | dose: 2.25 mg/kg/injection, schedule: Q01DX001 (ip), vehicle: saline 156 % of control | dose: 132.0 micrograms/kg/injection, schedule: Q01DX009 (ip), vehicle: saline 151 % of control
inactive: dose: 0.1 mg/kg/injection, schedule: Q01DX009 (ip), vehicle: saline 123 % of control | dose: 0.17 mg/kg/injection, schedule: Q01DX009 (ip), vehicle: saline 118 % of control | dose: 0.26 mg/kg/injection, schedule: Q01DX009 (ip), vehicle: saline 122 % of control | dose: 0.28 mg/kg/injection, schedule: Q01DX001 (ip), vehicle: saline 110 % of control | dose: 0.4 mg/kg/injection, schedule: Q01DX001 (ip), vehicle: saline 115 % of control | dose: 0.44 mg/kg/injection, schedule: Q01DX001 (ip), vehicle: saline 121 % of control | dose: 0.66 mg/kg/injection, schedule: Q01DX009 (ip), vehicle: saline 101 % of control | dose: 1.0 mg/kg/injection, schedule: Q01DX009 (ip), vehicle: saline 109 % of control | dose: 1.5 mg/kg/injection, schedule: Q01DX009 (ip), vehicle: saline 88 % of control | dose: 1.6 mg/kg/injection, schedule: Q01DX009 (ip), vehicle: saline 92 % of control | dose: 4.5 mg/kg/injection, schedule: Q01DX001 (ip), vehicle: saline 104 % of control | dose: 38.0 micrograms/kg/injection, schedule: Q01DX009 (ip), vehicle: saline 113 % of control | dose: 58.0 micrograms/kg/injection, schedule: Q01DX009 (ip), vehicle: saline 123 % of control | dose: 88.0 micrograms/kg/injection, schedule: Q01DX009 (ip), vehicle: saline 115 % of control | dose: 200.0 micrograms/kg/injection, schedule: Q01DX009 (ip), vehicle: saline 90 % of control

O=C(O)c1ccc(SCc2ccccc2)cc1
inactive: [2] 103 % of control | dose: 200.0 mg/kg/injection, schedule: Q01DX009 (ip), vehicle: Klucel (hydroxypropylcellulose) (HPC) 101 % of control | dose: 400.0 mg/kg/injection, schedule: Q01DX009 (ip), vehicle: Klucel (hydroxypropylcellulose) (HPC) 93 % of control

CN(C)CCP(=O)(O)O
inactive: dose: 100.0 mg/kg/injection, schedule: Q01DX009 (ip), vehicle: saline with Tween-80 96 % of control | [5] 95 % of control | dose: 400.0 mg/kg/injection, schedule: Q01DX009 (ip), vehicle: saline with Tween-80 91 % of control

O=C(CCCC(=O)N/N=C/c1cc([N+](=O)[O-])ccc1O)N/N=C\c1cc([N+](=O)[O-])ccc1O
inactive: [8] 96 % of control | [9] 104 % of control | [10] 102 % of control | [11] 98 % of control

Nc1ccc2c(c1)C(=NO)c1cc(N)ccc1-2
inactive: dose: 100.0 mg/kg/injection, schedule: Q01DX001 (ip), vehicle: carboxymethylcellulose (CMC) 106 % of control | dose: 200.0 mg/kg/injection, schedule: Q01DX001 (ip), vehicle: carboxymethylcellulose (CMC) 108 % of control

Cc1csc[n+]1C
inactive: dose: 75.0 mg/kg/injection, schedule: Q01DX001 (ip), vehicle: saline 98 % of control | dose: 150.0 mg/kg/injection, schedule: Q01DX001 (ip), vehicle: saline 102 % of control

S=C([S][Sn]([c]1ccccc1)([c]1ccccc1)[c]1ccccc1)N1CCCCC1
inactive: [1] 100 % of control | dose: 200.0 mg/kg/injection, schedule: Q04DX003 (ip), vehicle: Klucel (hydroxypropylcellulose) (HPC) 94 % of control | dose: 400.0 mg/kg/injection, schedule: Q04DX003 (ip), vehicle: Klucel (hydroxypropylcellulose) (HPC) 94 % of control

O=[N+]([O-])c1ccc(N/N=C\c2c(Cl)c(Cl)c(/C=N/Nc3ccc([N+](=O)[O-])cc3)c(Cl)c2Cl)cc1
inactive: [8] 91 % of control | [9] 91 % of control | [10] 94 % of control | [11] 94 % of control

O=NN(CCCl)C(=O)NC(CCC(=O)O)C(=O)O (configuration not stated)
active: dose: 67.0 mg/kg/injection, schedule: Q01DX001 (ip), vehicle: saline with Tween-80 200 % of control | [3] 261 % of control | dose: 150.0 mg/kg/injection, schedule: Q01DX001 (ip), vehicle: saline with Tween-80 331 % of control | dose: 224.0 mg/kg/injection, schedule: Q01DX001 (ip), vehicle: saline with Tween-80 331 % of control | dose: 335.0 mg/kg/injection, schedule: Q01DX001 (ip), vehicle: saline with Tween-80 192 % of control
inactive: dose: 13.0 mg/kg/injection, schedule: Q01DX001 (ip), vehicle: saline with Tween-80 123 % of control

Cc1ccc(Nc2ccc(Nc3ccc(C)cc3)c3c2C(=O)c2ccccc2C3=O)cc1
inactive: [4] 86 % of control | [6] 87 % of control | [7] 92 % of control
